The record followed here is ChEMBL document CHEMBL2007661, “Compounds: GSK PKIS; Assays: UNC Frye lab” (2012).

Molecules are shown by their SMILES. Values joined by “and” are separate entries in the source; they are usually repeats but may differ in a detail not shown here. Identical values can stand only once.

Assay [1] deals with T1, Inhibitor of nuclear factor kappa-B kinase subunit beta (Homo sapiens) (UniProt O14920).
T1 sequence (whole entry): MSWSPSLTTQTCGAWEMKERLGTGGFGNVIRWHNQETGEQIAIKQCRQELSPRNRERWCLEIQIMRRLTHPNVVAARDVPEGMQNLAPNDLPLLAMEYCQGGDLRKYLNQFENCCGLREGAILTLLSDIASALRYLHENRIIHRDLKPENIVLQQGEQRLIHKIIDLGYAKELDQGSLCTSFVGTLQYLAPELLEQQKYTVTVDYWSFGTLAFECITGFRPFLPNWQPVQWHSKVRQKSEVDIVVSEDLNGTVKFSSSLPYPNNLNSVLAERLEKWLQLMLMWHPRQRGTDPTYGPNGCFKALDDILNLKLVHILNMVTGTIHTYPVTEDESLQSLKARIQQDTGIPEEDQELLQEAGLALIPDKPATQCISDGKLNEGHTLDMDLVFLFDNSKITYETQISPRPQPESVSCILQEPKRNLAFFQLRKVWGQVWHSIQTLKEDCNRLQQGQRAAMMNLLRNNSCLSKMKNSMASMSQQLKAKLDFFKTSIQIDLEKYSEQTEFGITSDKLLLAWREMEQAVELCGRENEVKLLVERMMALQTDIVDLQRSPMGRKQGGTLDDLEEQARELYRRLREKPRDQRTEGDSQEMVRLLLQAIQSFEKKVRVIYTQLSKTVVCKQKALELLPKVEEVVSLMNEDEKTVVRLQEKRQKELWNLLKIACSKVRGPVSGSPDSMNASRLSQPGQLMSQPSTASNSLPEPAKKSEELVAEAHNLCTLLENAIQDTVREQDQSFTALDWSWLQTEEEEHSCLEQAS
The settings on record: at 1 µM.

For assay [2], the target named is T2, Tyrosine-protein kinase Mer (Homo sapiens) (UniProt Q12866).
T2 sequence (whole entry): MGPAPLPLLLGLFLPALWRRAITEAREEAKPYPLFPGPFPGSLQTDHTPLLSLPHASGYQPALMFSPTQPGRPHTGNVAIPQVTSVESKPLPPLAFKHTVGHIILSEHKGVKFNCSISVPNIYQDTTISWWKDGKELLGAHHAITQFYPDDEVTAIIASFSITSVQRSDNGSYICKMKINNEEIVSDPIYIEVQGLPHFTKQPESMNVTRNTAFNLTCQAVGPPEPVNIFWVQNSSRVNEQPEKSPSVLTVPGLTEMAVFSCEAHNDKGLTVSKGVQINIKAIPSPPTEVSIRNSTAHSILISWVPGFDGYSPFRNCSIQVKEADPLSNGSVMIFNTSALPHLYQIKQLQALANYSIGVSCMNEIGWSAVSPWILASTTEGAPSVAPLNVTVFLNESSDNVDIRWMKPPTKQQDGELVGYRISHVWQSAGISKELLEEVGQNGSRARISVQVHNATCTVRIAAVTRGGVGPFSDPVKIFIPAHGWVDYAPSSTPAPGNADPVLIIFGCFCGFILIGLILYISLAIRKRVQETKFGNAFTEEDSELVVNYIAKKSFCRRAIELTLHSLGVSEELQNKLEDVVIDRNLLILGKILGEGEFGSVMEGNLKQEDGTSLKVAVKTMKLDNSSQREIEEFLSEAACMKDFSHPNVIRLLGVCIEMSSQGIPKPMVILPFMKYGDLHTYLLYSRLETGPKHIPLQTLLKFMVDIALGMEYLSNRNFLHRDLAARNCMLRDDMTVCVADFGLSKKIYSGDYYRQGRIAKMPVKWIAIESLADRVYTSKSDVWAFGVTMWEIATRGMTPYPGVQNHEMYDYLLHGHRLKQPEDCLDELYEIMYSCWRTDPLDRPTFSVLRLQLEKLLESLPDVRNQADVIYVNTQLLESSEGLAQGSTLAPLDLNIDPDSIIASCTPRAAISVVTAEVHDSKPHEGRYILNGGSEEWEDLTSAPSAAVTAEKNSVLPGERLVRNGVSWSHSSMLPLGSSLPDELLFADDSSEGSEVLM
The settings on record: at 10 µM.

Assay [3] has as its target T3, Serine/threonine-protein kinase TBK1 (Homo sapiens) (UniProt Q9UHD2).
T3 sequence (whole entry): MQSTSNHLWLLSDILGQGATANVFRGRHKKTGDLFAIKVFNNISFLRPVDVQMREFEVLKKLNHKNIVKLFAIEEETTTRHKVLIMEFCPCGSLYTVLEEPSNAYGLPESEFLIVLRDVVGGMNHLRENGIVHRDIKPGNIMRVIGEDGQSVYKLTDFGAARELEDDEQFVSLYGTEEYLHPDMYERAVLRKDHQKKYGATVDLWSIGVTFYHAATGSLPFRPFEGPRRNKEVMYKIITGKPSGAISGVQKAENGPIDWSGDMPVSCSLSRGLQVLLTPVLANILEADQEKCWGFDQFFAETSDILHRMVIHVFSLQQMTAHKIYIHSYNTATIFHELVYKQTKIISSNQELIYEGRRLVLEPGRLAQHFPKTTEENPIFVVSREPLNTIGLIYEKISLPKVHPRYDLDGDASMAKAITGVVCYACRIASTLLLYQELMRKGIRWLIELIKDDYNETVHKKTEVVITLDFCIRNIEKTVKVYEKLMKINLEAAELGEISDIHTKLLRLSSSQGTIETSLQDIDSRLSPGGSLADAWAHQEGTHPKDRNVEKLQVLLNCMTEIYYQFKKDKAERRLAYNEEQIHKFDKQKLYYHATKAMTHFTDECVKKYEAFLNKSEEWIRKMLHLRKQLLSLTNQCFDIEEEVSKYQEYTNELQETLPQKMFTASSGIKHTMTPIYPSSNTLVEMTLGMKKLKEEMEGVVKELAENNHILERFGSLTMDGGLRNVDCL
The settings on record: at 1 µM.

Broadly, the inhibition is the change of the read-out against control, counted positive when it falls.

Consider `CC(C)c1ccc(Nc2nccc(-c3cnn4ncccc34)n2)cc1`, for which the inhibition is -4% and -10% in assay [1]; 32% in assay [2]; 18% and 19% in assay [3].

`c1ccc(Nc2ncc(-c3ccccc3)o2)cc1`: the inhibition is -4% in assay [1]; 0% in assay [2]; 2% and 1% in assay [3].

Regarding `CCn1c(-c2nonc2N)nc2cnc(Oc3cccc(NC(=O)c4ccc(N(C)C)cc4)c3)cc21`, the inhibition in assay [1] is -1% and -2%; in assay [2] it was -6%; in assay [3] it was 4% and 1%.

Turning to `Cc1nc(-c2ccccc2)n2nc(NCCCN3CCOCC3)ncc12`, the inhibition is -2% and 2% in assay [1]; 39% in assay [2]; 5% and 8% in assay [3].

Take `C[C@@H](Oc1cc(-n2cnc3ccc(OCC4CCN(C)CC4)cc32)sc1C(N)=O)c1ccccc1C(F)(F)F`: the inhibition was -2% and 0% in assay [1]; 5% in assay [2]; 11% and 4% in assay [3].

As to `Fc1ccc(-c2nn3ccccc3c2-c2ccncc2)cc1`, the inhibition in assay [1] is -5%; in assay [2], -2%; in assay [3] it was -4% and -8%.

Regarding `O=C1NC(=O)C(c2ccc(Cl)cc2)=C1Nc1ccc(Cl)c(C(=O)O)c1`, the inhibition in assay [1] is -5% and -2%; in assay [2] it was 62%; in assay [3] it was -2% and -4%.

For `CNC(=O)c1cncc(/C=C/c2ccccc2C)c1`, the inhibition was -1% and -3% in assay [1]; -5% in assay [2]; 2% and 5% in assay [3].

`COc1cc2ncn(-c3cc(OCc4ccccc4C(F)(F)F)c(C(=O)N(C)C)s3)c2cc1OC`: the inhibition is -3% and -1% in assay [1]; -10% in assay [2]; -1% and 0% in assay [3].

On to `CCn1c(-c2nonc2N)nc2ccncc21`, for which the inhibition in assay [1] was -4% and -5%; in assay [2], 32%; in assay [3] it was -4% and -5%.

For the molecule `CC(C)COC(=O)c1ccc2c(c1)/C(=C/Nc1ccc(S(N)(=O)=O)cc1)C(=O)N2`, the inhibition in assay [1] was 0% and -1%; in assay [2], 0%; in assay [3], 93% and 98%.

As for `NS(=O)(=O)c1ccc(N/N=C2\C(=O)Nc3cccc(CCc4ccncc4)c32)cc1`, the inhibition in assay [1] was -7%; in assay [2], -5%; in assay [3] it was 29% and 25%.

In the case of `COc1cc(Nc2ncc(-c3ccccc3)o2)cc(OC)c1OC`, the inhibition in assay [1] was 15% and 0%; in assay [2], 68%; in assay [3] it was 35% and 27%.

Consider `COc1cccc(-n2cnc3c(N/N=C/c4ccncc4)ncnc32)c1`, for which the inhibition in assay [1] was -3% and 4%; in assay [2], -4%; in assay [3] it was 4% and -1%.

Regarding `Cc1cc(O)cc(C)c1/C=C/c1cncc(C(=O)N(C)C)c1`, the inhibition in assay [1] is 3% and 2%; in assay [2] it was -4%; in assay [3] it was 1% and 6%.

As to `O=C1NC(=O)C(N2CCc3ccccc32)=C1c1ccc(Cl)cc1`, the inhibition was 3% and 2% in assay [1]; -6% in assay [2]; 1% in assay [3].

With `NS(=O)(=O)c1ccc(N/N=C2\C(=O)Nc3ccc(C(=O)NCCCn4ccnc4)cc32)cc1`, the inhibition in assay [1] was -1%; in assay [2] it was -4%; in assay [3] it was 42% and 41%.

With `COC(=O)Nc1nc2ccc(Oc3ccc(NC(=O)Nc4cccc(Cl)c4)cc3)cc2[nH]1`, the inhibition is -2% and 0% in assay [1]; 2% in assay [2]; 0% and 2% in assay [3].

In the case of `CC1(C)CC(n2cnc(-c3ccc(F)cc3)c2-c2ccnc(N)n2)CC(C)(C)N1`, the inhibition was -3% and -4% in assay [1]; -5% in assay [2]; -5% and -3% in assay [3].

With `Fc1cccc(COc2ccc(Nc3ncncc3C#Cc3ccccc3)cc2Cl)c1`, the inhibition in assay [1] is -6% and -3%; in assay [2], -5%; in assay [3] it was -6% and -7%.

For the molecule `CCn1cc(-c2ccnc3[nH]ccc23)c(-c2cccc(NC(=O)Nc3ccc(OCc4ccccc4)cc3)c2)n1`, the inhibition is -3% and 0% in assay [1]; -1% in assay [2]; -4% and -1% in assay [3].

As to `Nc1nc(-c2ccc3c(c2)C(=Cc2cc(Br)c(O)c(Br)c2)C(=O)N3)cs1`, the inhibition in assay [1] is -8%; in assay [2], -8%; in assay [3], 7% and 5%.

Take `Cc1nn(C)c2cc(N(C)c3ccnc(Nc4cccc(S(N)(=O)=O)c4)n3)ccc12`: the inhibition in assay [1] was -2% and 4%; in assay [2] it was -8%; in assay [3], 1% and 5%.

`c1ccc(-c2nc3n(c2-c2ccc4c(c2)OCO4)CCC3)nc1`: the inhibition in assay [1] was -5% and -3%; in assay [2], -1%; in assay [3], 5%.

As for `NS(=O)(=O)c1ccc(N/N=C2\C(=O)Nc3ccc(C(=O)NCc4ccncc4)cc32)cc1`, the inhibition in assay [1] is -1% and 0%; in assay [2], -8%; in assay [3], 59% and 60%.

Take `COc1cccc(-n2ncc3c(N/N=C/c4cccc(F)c4)ncnc32)c1`: the inhibition in assay [1] is -7% and -5%; in assay [2], -3%; in assay [3], 6% and 5%.

As for `COc1cc(Nc2ncc3c(C)nc(-c4cccc(C(F)(F)F)c4)n3n2)cc(OC)c1OC`, the inhibition in assay [1] was -4% and -5%; in assay [2] it was 6%; in assay [3], 53% and 45%.

Consider `COc1cc(N2CCN(C(C)C)CC2)ccc1Nc1nc(Nc2cccc3ncccc23)c2cc[nH]c2n1`, for which the inhibition is -2% and -4% in assay [1]; -5% in assay [2]; 7% and 2% in assay [3].

As to `COc1cc(/C=N/Nc2ncnc3c2cnn3C(C)C)ccc1O`, the inhibition in assay [1] is 4% and 0%; in assay [2] it was 2%; in assay [3], 9% and 8%.

As for `OCc1ccc(-c2nc(-c3ccccn3)c(-c3ccc4c(c3)OCO4)[nH]2)cc1`, the inhibition in assay [1] was -4% and -3%; in assay [2], -6%; in assay [3] it was -6% and -5%.

`O=C(Nc1ccc(Oc2ccc3[nH]c(NC(=O)c4ccco4)nc3c2)cc1)Nc1cc(C(F)(F)F)ccc1F`: the inhibition was 0% and 1% in assay [1]; 27% in assay [2]; 0% and 2% in assay [3].

In the case of `NS(=O)(=O)c1ccc(Nc2cc(-c3ccc(O)c(F)c3)n[nH]2)cc1`, the inhibition in assay [1] was -2% and -1%; in assay [2], -1%; in assay [3], 16% and 17%.
